# Data from patent publication US20230242530A1, “8-(AZETIDIN-1-YL)-[1,2,4]TRIAZOLO[1,5-A]PYRIDINYL COMPOUNDS, COMPOSITIONS AND METHODS OF USE THEREOF” (Genentech, Inc., priority 2016, published 2023).
# pEC50, pKi: −log10 of the molar value.
# Key:
# [1] = biological target: T1, isolated recombinant JAK1 kinase domain (Homo sapiens, UniProt P23458); experiment: JAK enzyme assay, JAK1 kinase domain (Caliper LabChip); assay type: biochemical; details: 1.5 nM JAK1, ATP 25 μM, Morrison tight binding model
# T1 construct: isolated recombinant JAK1 and JAK2 kinase domain
# T1 sequence (P23458 875-1153 limits assumed): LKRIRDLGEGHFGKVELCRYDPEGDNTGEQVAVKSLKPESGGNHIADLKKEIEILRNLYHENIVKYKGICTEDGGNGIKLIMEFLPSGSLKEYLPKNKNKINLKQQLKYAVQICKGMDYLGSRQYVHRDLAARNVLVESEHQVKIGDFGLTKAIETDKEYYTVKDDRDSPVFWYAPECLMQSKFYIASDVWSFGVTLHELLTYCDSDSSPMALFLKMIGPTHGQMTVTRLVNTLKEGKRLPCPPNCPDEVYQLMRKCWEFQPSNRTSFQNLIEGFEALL
# How it was run: (§1)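 Ki values were obtained by Morrison tight-binding analysis with ATP-competitive correction, Ki=Ki,app/(1+[ATP]/Km,app). Phosphorylated versus total fluorescent JAK3-derived peptide was quantified on a Caliper LabChip. Kinase reactions with the isolated recombinant domains ran 30 min at 22 °C before EDTA quench (50 mM final).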
# [2] = biological target: T2, isolated recombinant JAK2 kinase domain (Homo sapiens, UniProt O60674); experiment: JAK enzyme assay, JAK2 kinase domain (Caliper LabChip); assay type: biochemical; details: 0.2 nM JAK2, ATP 25 μM, Morrison tight binding model
# T2 construct: isolated recombinant JAK1 and JAK2 kinase domain
# T2 sequence (O60674 849-1124 limits assumed): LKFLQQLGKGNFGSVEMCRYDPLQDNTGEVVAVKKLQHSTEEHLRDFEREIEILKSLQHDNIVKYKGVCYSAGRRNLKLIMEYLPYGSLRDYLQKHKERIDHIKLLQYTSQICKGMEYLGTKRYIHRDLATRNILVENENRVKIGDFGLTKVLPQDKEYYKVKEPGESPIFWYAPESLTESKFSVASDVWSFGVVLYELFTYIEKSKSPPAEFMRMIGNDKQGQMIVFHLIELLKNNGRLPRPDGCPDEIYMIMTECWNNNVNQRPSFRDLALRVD
# How it was run: as §1
# [3] = test system: JAK1-dependent STAT6 phosphorylation downstream of IL-13 stimulation in BEAS-2B cells; experiment: JAK1 pathway assay in cell lines: IL-13 p-STAT6 BEAS-2B; assay type: cell-based; details: BEAS-2B human bronchial epithelial cells, 1 hr compound, IL-13 15 min, MSD readout
# How it was run: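 Phospho-STAT6 read by MSD electrochemiluminescence in lysates of BEAS-2B cells kept in complete growth medium. Cells were pretreated 1 hr at 37 °C with compound (0.2% DMSO final) and stimulated 15 min with IL-13 at its EC90; EC50 is the concentration halving signal versus DMSO.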
pKi [1],pKi [2],SMILES,pEC50 [3]
9.10,8.21,"Cc1nn(C2(CC#N)CN(c3cccn4nc(Nc5cnn(CC(=O)N6CCN(C)CC6)c5)nc34)C2)cc1C1CCCCC1 [Example 120, 2-[3-(4-cyclohexyl-3-methyl-pyrazol-1-yl)-1-[2-[[1-[2-(4-methylpiperazin-1-yl)-2-oxo-ethyl]pyrazol-4-yl]amino]-[1,2,4]triazolo[1,5-a]pyridin-8-yl]azetidin-3-yl]acetonitrile]",7.34
9.52,9.30,"N#CCC1(c2cccc(Cl)c2)CN(c2cccn3nc(Nc4cnn(CC(=O)N5CCN(C6COC6)CC5)c4)nc23)C1 [Example 69, 2-[3-(3-chlorophenyl)-1-[2-[[1-[2-[4-(oxetan-3-yl)piperazin-1-yl]-2-oxo-ethyl]pyrazol-4-yl]amino]-[1,2,4]triazolo[1,5-a]pyridin-8-yl]azetidin-3-yl]acetonitrile]",7.68
9.40,8.64,"Cc1cc(Cl)ccc1C1(CC#N)CN(c2cccn3nc(Nc4cnn(CC(=O)N5CCN(C)CC5)c4)nc23)C1 [Example 24, 2-[3-(4-chloro-2-methyl-phenyl)-1-[2-[[1-[2-(4-methylpiperazin-1-yl)-2-oxo-ethyl]pyrazol-4-yl]amino]-[1,2,4]triazolo[1,5-a]pyridin-8-yl]azetidin-3-yl]acetonitrile]",7.06
9.00,8.24,CN1CCN(C(=O)Cn2cc(Nc3nc4c(N5CC(CC#N)(n6cc(C7CCCCC7)cn6)C5)cccn4n3)cn2)CC1 [Example 55],6.86
9.40,9.40,"CCc1cnn(C2(CC#N)CN(c3cccn4nc(Nc5ccc6c(c5)CCN([C@@H]5CCOC5)C6)nc34)C2)c1 (stereo in doubt) [Example 61, 2-[3-(4-ethylpyrazol-1-yl)-1-[2-[[2-[rac-(3R)-tetrahydrofuran-3-yl]-3,4-dihydro-1H-isoquinolin-6-yl]amino]-[1,2,4]triazolo[1,5-a]pyridin-8-yl]azetidin-3-yl]acetonitrile]",8.10
9.52,9.52,"Cc1nn(C2(CC#N)CN(c3cccn4nc(Nc5cnn(CC(=O)N6CCN(C)CC6)c5)nc34)C2)cc1-c1ccccc1 [Example 114, formic acid;2-[3-(3-methyl-4-phenyl-pyrazol-1-yl)-1-[2-[[1-[2-(4-methylpiperazin-1-yl)-2-oxo-ethyl]pyrazol-4-yl]amino]-[1,2,4]triazolo[1,5-a]pyridin-8-yl]azetidin-3-yl]acetonitrile]",7.80
9.52,9.10,"N#CCC1(n2cc(Br)cn2)CN(c2cccn3nc(Nc4cnn(CC(=O)N5CCN(C6CCOCC6)CC5)c4)nc23)C1 [Example 129, 2-[3-(4-bromopyrazol-1-yl)-1-[2-[[1-[2-oxo-2-(4-tetrahydropyran-4-ylpiperazin-1-yl)ethyl]pyrazol-4-yl]amino]-[1,2,4]triazolo[1,5-a]pyridin-8-yl]azetidin-3-yl]acetonitrile]",7.31
9.40,8.62,"COc1ccc(CCC2(CC#N)CN(c3cccn4nc(Nc5cnn(CC(=O)N6CCN(C)CC6)c5)nc34)C2)cc1 [Example 117, 2-[3-[2-(4-methoxyphenyl)ethyl]-1-[2-[[1-[2-(4-methylpiperazin-1-yl)-2-oxo-ethyl]pyrazol-4-yl]amino]-[1,2,4]triazolo[1,5-a]pyridin-8-yl]azetidin-3-yl]acetonitrile]",7.70
9.22,8.62,"CN1CCN(C(=O)Cn2cc(Nc3nc4c(N5CC(CC#N)(n6cc(C7CCCC7)cn6)C5)cccn4n3)cn2)CC1 [Example 49, 2-[3-(4-cyclopentylpyrazol-1-yl)-1-[2-[[1-[2-(4-methylpiperazin-1-yl)-2-oxo-ethyl]pyrazol-4-yl]amino]-[1,2,4]triazolo[1,5-a]pyridin-8-yl]azetidin-3-yl]acetonitrile]",7.52
9.22,8.68,"CCc1cnn(C2(CC#N)CN(c3cccn4nc(Nc5cnn(CC(=O)N6CCC(N7CCOCC7)CC6)c5)nc34)C2)c1 [Example 29, 2-[3-(4-ethylpyrazol-1-yl)-1-[2-[[1-[2-(4-morpholino-1-piperidyl)-2-oxo-ethyl]pyrazol-4-yl]amino]-[1,2,4]triazolo[1,5-a]pyridin-8-yl]azetidin-3-yl]acetonitrile]",7.11
9.52,9.30,"CCc1cnn(C2(CC#N)CN(c3cccn4nc(Nc5ccc(C(=O)NCCN6CCOCC6)cc5)nc34)C2)c1 [Example 66, 4-[[8-[3-(cyanomethyl)-3-(4-ethylpyrazol-1-yl)azetidin-1-yl]-[1,2,4]triazolo[1,5-a]pyridin-2-yl]amino]-N-(2-morpholinoethyl)benzamide]",7.51
9.52,10.00,CN1CCN(C(=O)Cn2cc(Nc3nc4c(N5CC(CC#N)(n6cc(NCC(F)(F)F)cn6)C5)cccn4n3)cn2)CC1 [Example 104],7.66
9.05,8.62,"CN1CCN(C(=O)Cn2cc(Nc3nc4c(N5CC(CC#N)(N6CCC(F)(F)CC6)C5)cccn4n3)cn2)CC1 [Example 12, 2-[3-(4,4-difluoro-1-piperidyl)-1-[2-[[1-[2-(4-methylpiperazin-1-yl)-2-oxo-ethyl]pyrazol-4-yl]amino]-[1,2,4]triazolo[1,5-a]pyridin-8-yl]azetidin-3-yl]acetonitrile]",7.57
9.40,9.70,CCc1cnn(C2(CC#N)CN(c3cccn4nc(Nc5cnn(CC(=O)N6CCC(CN7CCN(C)CC7)CC6)c5)nc34)C2)c1 [Example 47],7.96
9.40,8.66,"CCc1cnn(C2(CC#N)CN(c3cccn4nc(Nc5cnn(CC(=O)N6CCC(CN7CCN(CC(=O)N(C)C)CC7)CC6)c5)nc34)C2)c1 [Example 42, 2-[4-[[1-[2-[4-[[8-[3-(cyanomethyl)-3-(4-ethylpyrazol-1-yl)azetidin-1-yl]-[1,2,4]triazolo[1,5-a]pyridin-2-yl]amino]pyrazol-1-yl]acetyl]-4-piperidyl]methyl]piperazin-1-yl]-N,N-dimethyl-acetamide]",7.38
9.52,9.70,CN1CCN(C(=O)Cn2cc(Nc3nc4c(N5CC(CC#N)(c6ccccc6)C5)cccn4n3)cn2)CC1 [Example 101],7.80
9.22,9.40,"CN(CC(C)(C)C#N)C1CCN(C(=O)Cn2cc(Nc3nc4c(N5CC(CC#N)(n6cc(C(F)(F)F)cn6)C5)cccn4n3)cn2)CC1 [Example 108, 3-[[1-[2-[4-[[8-[3-(cyanomethyl)-3-[4-(trifluoromethyl)pyrazol-1-yl]azetidin-1-yl]-[1,2,4]triazolo[1,5-a]pyridin-2-yl]amino]pyrazol-1-yl]acetyl]-4-piperidyl]-methyl-amino]-2,2-dimethyl-propanenitrile;formic acid]",7.43

SMILES,pKi [1],pKi [2],pEC50 [3]
"CCc1cnn(C2(CC#N)CN(c3cccn4nc(Nc5cccc(CC(=O)N6CCN(C)CC6)c5)nc34)C2)c1 [Example 5, 2-[3-(4-ethyl-1H-pyrazol-1-yl)-1-[2-([3-[2-(4-methylpiperazin-1-yl)-2-oxoethyl]phenyl]amino)-[1,2,4]triazolo[1,5-a]pyridin-8-yl]azetidin-3-yl]acetonitrile]",8.72,8.51,6.92
